Test results: patent publication US9615579B2, “Compositions for powdery mildew control and methods of their use” (Valent U.S.A., Corporation, priority 2015, dated 2017)

How the values were obtained:
apple powdery mildew [1] = test: Example 1: foliar applications on jonagold apple trees, control of apple powdery mildew; assay type: in vivo, Podosphaera leucotricha; conditions: jonagold trees about 9 years old; five foliar sprays at 14 day intervals, about 300 L/ha; incidence of disease observed about a week after last treatment; rates (own compound 50 g active/ha, silicone surfactant 584 mL/ha, Regulaid surfactant 0.125% v/v, methylated seed oil 0.06% v/v, kresoxim-methyl 224, penthiopyrad 234 g active/ha)
Description: Applicant conducted the following study to determine the effect of 3-(difluoromethyl)-1-methyl-N-[(3R)-1,1,3-trimethyl-2,3-dihydroinden-4-yl]pyrazole-4-carboxamide foliar applications on fungal infections in apple trees.
A 40% suspension concentrate formulation was used as the source of 3-(difluoromethyl)-1-methyl-N-[(3R)-1,1,3-trimethyl-2,3-dihydroinden-4-yl]pyrazole-4-carboxamide (available from Sumitomo Chemical Company, Tokyo, Japan).
Regulaid® is a nonionic surfactant and was used as the source of the 2-butoxyethanol, poloxalene, and monopropylene glycol surfactant (Regulaid is available from and a registered trademark of KALO, Inc). Regulaid® contains about 90.6% of 2-butoxyethanol, poloxalene, and monopropylene glycol.
Sovran® was used as the source of kresoxim-methyl (available from and a registered trademark of BASF Corporation).
Fontelis® was used as the source of penthiopyrad (available from and a registered trademark of E.I. du Pont).
Slygard® 309 was used as the source of a mixture of 3-(3-hydroxypropyl)-heptamethyltrisiloxane-ethoxylated acetate, polyethylene glycol monallyl acetate and polyethylene glycol diacetate silicone containing surfactant (available from and a registered trademark of Wilbur-Ellis Company). Slygard® 309 contains 100% of the mixture of surfactants.

Apples, jonagold variety = test: Example 2: fruit finish quality of treated apple trees; assay type: in vivo; conditions: 80 days after 7th treatment
Procedure: (§1) 30, 2015. […] Pest incidence, pest severity, and fruit finish were measured.

apple powdery mildew [2] = test: Example 2: foliar applications on jonagold apple trees, incidence and severity of apple powdery mildew; assay type: in vivo, Podosphaera leucotricha
Procedure: Applicant conducted the following study to determine the effect of a 3-(difluoromethyl)-1-methyl-N-[(3R)-1,1,3-trimethyl-2,3-dihydroinden-4-yl]pyrazole-4-carboxamide foliar applications on fungal infections in apple trees.
as §1
SYL-COAT™ was used as the source of polyether-polymethylsiloxane-copolymer and polyether silicone containing surfactant (available from Wilbur-Ellis Company).

[3] = 8 days after 4th treatment, rates (own compound 50 g/ha, penthiopyrad 234 g/ha, kresoxim-methyl 224 g/ha, silicone surfactant 8 fl oz/a, Regulaid surfactant 0.125% v/v)

Compound	% Control (apple powdery mildew [1]) [%]	Fruit Finish Quality (0 lowest-10 highest) (Apples, jonagold variety) [b]	Incidence of Apple Powdery Mildew (%) (apple powdery mildew [2]; 2 days after 5th treatment)	Severity of Apple Powdery Mildew (%) (apple powdery mildew [2]; 2 days after 5th treatment)	Incidence of Apple Powdery Mildew (%) (apple powdery mildew [2]; 3 days after 6th treatment)	Severity of Apple Powdery Mildew (%) (apple powdery mildew [2]; 3 days after 6th treatment)	Incidence of Apple Powdery Mildew (%) (apple powdery mildew [2]; [3])	Severity of Apple Powdery Mildew (%) (apple powdery mildew [2]; 9 days after 7th treatment)
CO/N=C(/C(=O)OC)c1ccccc1COc1ccccc1C [Kresoxim-methyl, kresoxim-methyl]	63	8.2500	3.4874 cd %	0.8465 cd %	12.0332 cd %	2.9013 c %	8.7500 bc %	9.0294 bc %
CC(C)CC(C)c1sccc1NC(=O)c1cn(C)nc1C(F)(F)F (stereo not drawn) [Penthiopyrad, penthiopyrad]	71	8.0000	1.4675 cd %	0.6379 cd %	2.5965 ef %	0.7932 d %	7.5000 bc %	7.8439 c %
C[C@@H]1CC(C)(C)c2cccc(NC(=O)c3cn(C)nc3C(F)F)c21 [3-(Difluoromethyl)-1-methyl-N-[(3R)-1,1,3-trimethyl-2,3-dihydroinden-4-yl]pyrazole-4-carboxamide]	67	7.5000	11.5303 bc %	1.6836 bc %	20.4938 c %	4.4196 c %	13.0000 b %	11.5331 bc %
